In article PMC8869358, “High-Throughput Chemical Screening and Structure-Based Models to Predict hERG Inhibition” (Biology, 2022):
Where a name gives a salt, the structure may show the parent alone.

Target: hERG (Homo sapiens, UniProt Q12809)
Test: cell-based
Conditions: (-LOG10(IC50), µM)

hERG, sequence (Q12809 whole entry): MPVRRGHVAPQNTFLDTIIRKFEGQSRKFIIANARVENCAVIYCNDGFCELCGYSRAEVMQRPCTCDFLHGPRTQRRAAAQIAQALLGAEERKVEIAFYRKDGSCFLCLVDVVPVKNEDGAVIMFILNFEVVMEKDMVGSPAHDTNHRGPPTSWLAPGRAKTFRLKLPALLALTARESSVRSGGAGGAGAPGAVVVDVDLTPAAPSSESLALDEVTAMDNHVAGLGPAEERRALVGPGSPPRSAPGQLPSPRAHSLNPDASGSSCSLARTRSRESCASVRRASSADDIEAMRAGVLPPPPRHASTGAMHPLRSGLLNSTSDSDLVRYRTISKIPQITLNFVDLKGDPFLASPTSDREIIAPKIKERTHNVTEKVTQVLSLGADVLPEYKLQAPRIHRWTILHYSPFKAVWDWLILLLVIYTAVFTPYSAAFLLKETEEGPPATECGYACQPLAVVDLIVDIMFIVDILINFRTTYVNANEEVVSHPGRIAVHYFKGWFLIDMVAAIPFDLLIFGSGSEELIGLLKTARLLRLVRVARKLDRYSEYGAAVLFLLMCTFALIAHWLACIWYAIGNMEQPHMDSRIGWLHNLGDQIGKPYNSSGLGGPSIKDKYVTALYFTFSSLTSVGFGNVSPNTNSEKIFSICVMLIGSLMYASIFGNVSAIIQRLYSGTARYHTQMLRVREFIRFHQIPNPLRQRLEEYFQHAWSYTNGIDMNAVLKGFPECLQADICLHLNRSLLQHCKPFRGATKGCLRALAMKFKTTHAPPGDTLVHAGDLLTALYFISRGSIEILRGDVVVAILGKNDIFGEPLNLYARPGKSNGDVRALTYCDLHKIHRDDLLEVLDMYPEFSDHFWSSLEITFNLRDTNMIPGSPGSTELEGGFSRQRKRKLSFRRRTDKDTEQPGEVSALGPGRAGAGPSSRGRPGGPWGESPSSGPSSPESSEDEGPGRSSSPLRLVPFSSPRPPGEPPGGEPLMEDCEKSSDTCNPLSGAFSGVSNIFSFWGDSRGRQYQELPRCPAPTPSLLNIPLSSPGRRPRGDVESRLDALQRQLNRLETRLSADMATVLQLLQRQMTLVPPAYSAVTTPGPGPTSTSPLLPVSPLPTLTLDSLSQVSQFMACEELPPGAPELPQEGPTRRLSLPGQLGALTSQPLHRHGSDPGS

Compound	IC50 [µM]
COc1ccc2cc1Oc1ccc(cc1)C[C@H]1c3c(cc4c(c3Oc3cc5c(cc3OC)CCN(C)[C@@H]5C2)OCO4)CCN1C [Cepharanthine]	10.3
CN(C)S(=O)(=O)N(SC(F)(Cl)Cl)c1ccccc1 [Dichlofluanid]	17.4
CN(C)C(=O)NC1(c2ccccc2)CCN(CC[C@@]2(c3ccc(F)c(F)c3)CN(C(=O)c3ccccc3)CCO2)CC1 [SR144190]	20.3
CCOC(=O)C(Cl)Cc1cc(-n2nc(C)n(C(F)F)c2=O)c(F)cc1Cl (stereo not drawn) [Carfentrazone-ethyl]	28.6
Oc1ccc(C(c2ccc(O)cc2)C(Cl)(Cl)Cl)cc1 [2,2-Bis(4-hydroxyphenyl)-1,1,1-trichloroethane]	54.9
CCCCC(CC)COCCCN (stereo not drawn) [3-((2-Ethylhexyl)oxy)propylamine]	35.6
CC(C)=CCN1CC[C@@]2(C)c3cc(O)ccc3C[C@@H]1[C@@H]2C [(-)-Pentazocine succinate]	22.8
CCCCOC(=O)[C@@H](C)Oc1ccc(Oc2ccc(C(F)(F)F)cn2)cc1 [Fluazifop-P-butyl]	22
C[C@@H]1CC(=O)NN=C1c1ccc(NN=C(C#N)C#N)cc1 [Levosimendan]	5.67
CCCCCCOC(=O)NC(=N)c1ccc(NCc2nc3cc(C(=O)N(CCC(=O)OCC)c4ccccn4)ccc3n2C)cc1 [Dabigatran etexilate]	0.515
CCCCCCCC(=O)Oc1c(Br)cc(C#N)cc1Br [Bromoxynil octanoate]	26.4
O=C(CCCN1CCC(n2c(O)nc3ccccc32)CC1)c1ccc(F)cc1 [Benperidol]	1.76
CCC(C)Nc1c([N+](=O)[O-])cc(C(C)(C)C)cc1[N+](=O)[O-] (stereo not drawn) [Butralin]	23.6
CCc1nn(CCCN2CCN(c3cccc(Cl)c3)CC2)c(=O)n1CCOc1ccccc1 [Nefazodone hydrochloride]	1.57
CCCCCCCC[n+]1ccn(C)c1 [1-Methyl-3-octylimidazolium hexafluorophosphate]	17.6
CCCCCCCCCCCCCCn1cc[n+](C)c1 [1-Methyl-3-tetradecylimidazolium chloride]	8.62
CCCCOCCOC(=O)c1ccccc1C(=O)OCCOCCCC [Bis(2-butoxyethyl) phthalate]	20.2
CC(C)CC(C)Nc1ccc(Nc2ccccc2)cc1 (stereo not drawn) [6PPD]	29
CCC(C)(NC(=O)c1cc(Cl)c(C)c(Cl)c1)C(=O)CCl (stereo not drawn) [Zoxamide]	39.1
Cc1c(C)n(Cc2ccccc2)c2ccc(C(=O)OCCN(C)C)cc12 [Indocate]	14.2

Compound	IC50 [µM]
c1ccc(Nc2cccc3ccccc23)cc1 [N-Phenyl-1-naphthylamine]	33.4
C#CCOS(=O)OC1CCCCC1Oc1ccc(C(C)(C)C)cc1 (stereo not drawn) [Propargite]	20.7
C=CC(=O)OCC(CO)(COCC(COC(=O)C=C)(COC(=O)C=C)COC(=O)C=C)COC(=O)C=C [Dipentaerythritol pentaacrylate]	8.28
CCOC(=O)C1(c2ccccc2)CCN(CCC(C#N)(c2ccccc2)c2ccccc2)CC1 [Diphenoxylate hydrochloride]	0.624
O=C(N[C@H](c1ccccc1)[C@@H]1CN2CCC1CC2)c1c(Cl)ccc(C(F)(F)F)c1Cl [SSR 103800]	30.2
Cc1ccc(O)c(C(=O)c2ccccc2)c1 [2-Hydroxy-5-methylbenzophenone]	35
CCCCCCCCCCCCCCCC[N+](C)(C)C [Hexadecyltrimethylammonium bromide]	20.1
O=C1OC(CCN2CCCCC2)OC1(c1ccccc1)c1ccccc1 (stereo not drawn) [Pipoxolan hydrochloride]	1.25
O=C(N[C@H]1N=C(c2ccccc2F)c2cccc3c2N(CC3)C1=O)c1cc2ccccc2[nH]1 [Pranazepide]	7.86
COc1ccc(CN2CCN(C(c3ccc(F)cc3)c3ccc(F)cc3)CC2)c(OC)c1OC [Lomerizine dihydrochloride]	0.849
Clc1ccccc1-c1ccccc1Cl [2,2'-Dichlorobiphenyl]	17.6
CCN(CC)CCNC(=O)COc1ccc(Cl)cc1 [Clofexamide]	16.3
CCCCCCCCCCCCn1cc[n+](C)c1 [1-Dodecyl-3-methylimidazolium tetrafluoroborate]	4.04
CCCCc1oc2ccc(NS(C)(=O)=O)cc2c1C(=O)c1ccc(OCCCN(CCCC)CCCC)cc1 [Dronedarone]	0.849
N#C/C(=C1/SC[C@@H](c2ccc(Cl)cc2Cl)S1)n1ccnc1 [Luliconazole]	3.13
N#Cc1ccc(CC(=O)c2cccc(C(F)(F)F)c2)cc1 [4-{2-Oxo-2-[3-(trifluoromethyl)phenyl]ethyl}benzonitrile]	30.9
N#CC(C#N)=NNc1cccc(Cl)c1 [Carbonyl cyanide chlorophenylhydrazone]	36
CCCCCCCCCCCCc1ccc(O)cc1 [4-Dodecylphenol]	19.5
CC(C)(C)CC(C)(C)c1ccc(O)c(-n2nc3ccccc3n2)c1 [Octrizole]	14.5
O=S1OC[C@@H]2[C@H](CO1)[C@]1(Cl)C(Cl)=C(Cl)[C@@]2(Cl)C1(Cl)Cl (stereo partly drawn) [Endosulfan I]	43.6

Compound	IC50 [µM]
NCCNc1cccc2ccccc12 [N-(1-Naphthyl)ethylenediamine dihydrochloride]	40.2
CCOP(=S)(OCC)Oc1ccc([N+](=O)[O-])cc1 [parathion]	45.9
O=S1(=O)OC[C@@H]2[C@H](CO1)[C@]1(Cl)C(Cl)=C(Cl)[C@@]2(Cl)C1(Cl)Cl [Endosulfan sulfate]	16.1
CC1CCCCN1CCCOC(=O)c1ccc(OC2CCCCC2)cc1 (stereo not drawn) [Cyclomethycaine]	2.68
COP(=S)(OC)Oc1cc(Cl)c(I)cc1Cl [Iodenphos]	45.3
COc1c(C(C)(C)C)cc([N+](=O)[O-])c(C)c1[N+](=O)[O-] [Musk ambrette]	20.5
Cc1c(C(=O)NN2CCCCC2)nn(-c2ccc(Cl)cc2Cl)c1-c1ccc(Cl)cc1 [Rimonabant]	3.25
COC(=O)C1=C(C)NC(C)=C(C(=O)OCCN2CCN(C(c3ccccc3)c3ccccc3)CC2)C1c1cccc([N+](=O)[O-])c1 (stereo not drawn) [Manidipine dihydrochloride]	7
S=C=NCCc1ccccc1 [Phenethyl isothiocyanate]	16.8
Fc1ccc(C(c2ccc(F)cc2)N2CCNCC2)cc1 [1-(Bis(4-fluorophenyl)methyl)piperazine]	19.7
C=CCOc1cc(Cl)ccc1C(=O)NCCN(CC)CC [Alloclamide]	8.82
CC[N+]1(CC)CCC(=C(c2ccccc2)c2ccccc2)C1C (stereo not drawn) [Prifinium bromide]	20.5
CCCCCCCCCCCCCCCCCC[N+](C)(C)Cc1ccccc1 [N,N-Dimethyl-N-benzyl-N-octadecylammonium chloride]	4.41
CC(C)=CCC[C@](C)(O)[C@@H]1CC=C(C)CC1 [Levomenol]	38.9
CC(C)=CC1C(C(=O)OCN2C(=O)C3=C(CCCC3)C2=O)C1(C)C (stereo not drawn) [Tetramethrin]	40.4
O=C(OC1CCCCC1)c1ccccc1C(=O)OC1CCCCC1 [Dicyclohexyl phthalate]	23.1
N#Cc1c(-c2ccc(Cl)cc2)[nH]c(C(F)(F)F)c1Br [Tralopyril]	11
CCOc1ccc2nc(N)sc2c1 [2-Amino-6-ethoxybenzothiazole]	43.3
O=C1c2c(O)ccc(Nc3ccc(CCO)cc3)c2C(=O)c2c([N+](=O)[O-])ccc(O)c21 [C.I. Disperse Blue 27]	43.6
CCN(CC)CCN1C(=O)CN=C(c2ccccc2F)c2cc(Cl)ccc21 [Flurazepam]	3.79
